Measurements reported in the SangsterLogP compilation.

Assay: method code SF-AS, from DOI: 10.1007/bf00778146
In the case of `CC(CO)(CO)Nc1nc(N2CC2)nc(N2CC2)n1`, the logP is reported as -0.75. In the case of `COc1ccc(C2OCC(CO)(Nc3nc(N4CC4)nc(N4CC4)n3)CO2)cc1OC` (stereo unspecified), the logP is reported as 0.89. With `CCC1(Nc2nc(N3CC3)nc(N3CC3)n2)COC(C)(C)OC1` the logP was 0.85. `OCC(CO)(CO)Nc1nc(N2CC2)nc(N2CC2)n1` gave a logP of -1.76. `CC1(C)OCC(CO)(Nc2nc(N3CC3)nc(N3CC3)n2)CO1` showed a logP of -0.52. `CCC(CO)(CO)Nc1nc(N2CC2)nc(N2CC2)n1` showed a logP of -0.32. Work on `OCC1(Nc2nc(N3CC3)nc(N3CC3)n2)COC(c2ccccc2)OC1` (stereo unspecified) yielded a logP of 0.62. For `OCC1(Nc2nc(N3CC3)nc(N3CC3)n2)COC(c2ccco2)OC1` (stereo unspecified), the logP was 0.27. With `OCC(CO)Nc1nc(N2CC2)nc(N2CC2)n1` the logP was -1.54. `CC1(C)OCC(Nc2nc(N3CC3)nc(N3CC3)n2)CO1` gave a logP of 0.11. With `CC(C)C1OCC(CO)(Nc2nc(N3CC3)nc(N3CC3)n2)CO1` (stereo unspecified) the logP was 0.22.
